Assay results from ChEMBL document CHEMBL4007476, “Chemical synthesis, redox transformation, and identification of sonnerphenolic C, an antioxidant in Acer nikoense” (Bioorg Med Chem Lett, 2017).

Tests used:
[1] = Antioxidant activity assessed as DPPH radical scavenged per mole of compound after 20 mins; format: functional
Tyrosinase [2] = molecular target: T1, Tyrosinase (Homo sapiens, UniProt P14679); assay: Drug metabolism assessed as tyrosinase (unknown origin)-mediated redox transformation by measuring sonnerphenolic C formation at 10 mM in presence of vitamin C by HPLC analysis; format: ADME; conditions: 10000 µM
T1 sequence (P14679 whole entry): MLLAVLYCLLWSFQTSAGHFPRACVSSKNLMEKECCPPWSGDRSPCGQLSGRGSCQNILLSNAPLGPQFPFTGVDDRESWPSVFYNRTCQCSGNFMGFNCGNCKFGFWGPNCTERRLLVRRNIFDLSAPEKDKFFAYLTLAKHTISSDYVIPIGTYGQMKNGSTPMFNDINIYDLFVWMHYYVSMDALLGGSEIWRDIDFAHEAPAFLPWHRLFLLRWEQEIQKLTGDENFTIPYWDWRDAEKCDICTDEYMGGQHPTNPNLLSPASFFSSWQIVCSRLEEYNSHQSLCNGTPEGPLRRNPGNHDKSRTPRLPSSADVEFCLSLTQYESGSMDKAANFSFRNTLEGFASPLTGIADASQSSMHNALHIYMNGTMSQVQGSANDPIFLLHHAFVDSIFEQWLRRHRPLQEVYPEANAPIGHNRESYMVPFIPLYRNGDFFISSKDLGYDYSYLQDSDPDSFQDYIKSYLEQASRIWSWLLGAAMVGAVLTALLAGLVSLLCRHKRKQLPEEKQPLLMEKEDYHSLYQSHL

Tyrosinase [3] = molecular target: T1, Tyrosinase; assay: Drug level treated with 10 mM epirhododendrin assessed as tyrosinase (unknown origin)-mediated redox transformation in presence of vitamin C by HPLC analysis; format: ADME

Row | Molecule | Activity [1] [mol] | Drug metabolism (Tyrosinase [2]) | Drug metabolism (Tyrosinase [3])
1 | VITAMIN E | 1.86 |  | 
2 | C[C@@H](CCc1ccc(O)cc1)O[C@@H]1O[C@H](CO)[C@@H](O)[C@H](O)[C@H]1O | 0 | Metabolite_Detected | 
3 | C[C@@H](CCc1ccc(O)c(O)c1)O[C@@H]1O[C@H](CO)[C@@H](O)[C@H](O)[C@H]1O | 2.23 |  | Metabolite_Detected
